Assay [1] concerns the target T1, rat alpha4beta2 receptor (Rattus norvegicus, UniProt P09483+P12390). Briefly: Activation of alpha4beta2 receptors expressed in Xenopus oocytes. The assay is classed as cell-based. The conditions noted are these: read-out: alpha4beta2 activation: % response observed with 10 μM acetylcholine.
Assay [2] addresses T1, rat alpha4beta2 receptor. Put plainly: Antagonism of alpha4beta2 receptors in oocytes (residual inhibition of ACh response after drug). The class given is cell-based. Conditions: xenopus oocytes. As to the method:
Oocytes were prepared and recordings made as described previously (de Fiebre, et al., 1995). Frogs were anesthetized by submersion in 0.1% (3)-aminobenzoic acid ethyl ester and several lobes of the ovary surgically removed through a small incision in the abdomen wall. Oocytes were freed from the follicle cells by treatment with collagenase (in calcium-free Barth's solution: 88 mM NaCl, 1 mM KCl, 15 mM Hepes pH 7.6, 0.33 mM MgSO4, 0.1 mg/ml gentamicin sulfate) for 2 hr at room temperature and Stage 5 oocytes were isolated. Oocytes were rinsed and stored at 18° C. in Barth's saline (88 mM NaCl, 1 mM KCl, 15 mM Hepes pH 7.6, 0.3 mM Ca(NO3)2, 0.41 mM CaCl2, 0.82 mM MgSO4, 0.1 mg/ml gentamicin sulfate) before and after microinjection with RNA. Microinjection was conducted with a Drummond Scientific "Nanoject Variable" automatic injector. Oocytes were injected with a 50 nl solution of specified rat nicotinic subunit mRNA species (2-10 mg/ml; derived from the cDNA containing HIP 306 plasmid kindly provided by Dr. Jim Boulter, Salk Institute) and incubated 2-7 days at 18° C. before electrophysiological recording. electrophysiological recordings, oocytes were perfused in a Warner Instruments RC-8 recording chamber with a perfusion solution containing 115 mM NaCl, 2.5 mM KCl, 10 mM Hepes pH 7.2, 1.8 mM CaCl2 and 1 μM atropine to block muscarinic responses. Perfusion was continuous at a rate of 10 ml/min. Drags were diluted in perfusion solution and applied using a solenoid valve to switch from perfusion to drug solutions. Current responses to drug administration were studied under two electrode voltage clamp at a holding potential of -70 mV using a Dagan Corp. TEV-200 voltage clamp connected to a 386-SX IBM computer using a TL-1 DMA interface (Axon Instruments). […] Drug responses are analyzed with PClamp software (Axon Instruments). […]
Antagonist properties subsequent to agonist activity were measured as a decrease in responsiveness to ACh applied 5 min after compound-application, normalized to ACh application instead of the anabaseine-derivative (FIG. 13A AND FIG. 13B).

Some results are limits rather than exact numbers.

T1 sequence (P09483 31-630): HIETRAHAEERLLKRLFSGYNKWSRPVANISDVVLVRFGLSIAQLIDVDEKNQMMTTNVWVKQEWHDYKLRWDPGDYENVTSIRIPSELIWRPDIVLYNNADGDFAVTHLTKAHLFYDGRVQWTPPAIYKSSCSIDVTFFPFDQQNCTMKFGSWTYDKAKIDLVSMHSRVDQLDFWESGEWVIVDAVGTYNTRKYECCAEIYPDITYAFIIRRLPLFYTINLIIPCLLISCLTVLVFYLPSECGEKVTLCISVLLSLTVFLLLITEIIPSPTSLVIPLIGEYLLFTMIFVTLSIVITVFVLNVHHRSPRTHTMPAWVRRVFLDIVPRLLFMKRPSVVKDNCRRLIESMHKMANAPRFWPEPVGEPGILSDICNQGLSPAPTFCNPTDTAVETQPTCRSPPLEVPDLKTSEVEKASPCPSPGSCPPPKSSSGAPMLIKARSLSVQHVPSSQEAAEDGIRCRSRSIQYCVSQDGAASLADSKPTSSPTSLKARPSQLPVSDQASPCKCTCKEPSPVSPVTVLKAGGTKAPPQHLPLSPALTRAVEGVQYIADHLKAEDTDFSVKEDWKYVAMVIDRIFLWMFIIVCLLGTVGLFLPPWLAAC
T1 sequence (P12390 25-500): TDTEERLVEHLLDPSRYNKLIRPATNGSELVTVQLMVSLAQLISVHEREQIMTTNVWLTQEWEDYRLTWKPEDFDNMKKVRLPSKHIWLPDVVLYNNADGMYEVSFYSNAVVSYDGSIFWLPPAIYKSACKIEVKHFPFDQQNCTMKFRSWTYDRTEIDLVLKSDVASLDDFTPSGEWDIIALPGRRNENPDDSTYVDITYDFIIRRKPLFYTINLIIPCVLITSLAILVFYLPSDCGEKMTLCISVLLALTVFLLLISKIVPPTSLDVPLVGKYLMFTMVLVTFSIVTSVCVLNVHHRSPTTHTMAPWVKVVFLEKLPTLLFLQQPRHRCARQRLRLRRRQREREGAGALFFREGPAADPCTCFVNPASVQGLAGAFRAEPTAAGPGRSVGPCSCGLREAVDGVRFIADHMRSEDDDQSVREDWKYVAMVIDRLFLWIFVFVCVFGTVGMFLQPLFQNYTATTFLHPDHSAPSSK

Regarding `COc1ccccc1/C=C/C=C1\CCCN=C1c1cccnc1` [2-MeOCA, E,E-3-(2-Methoxycinnamylidene)anabaseine], at rat alpha4beta2 receptor [1], the Emax is under 3%. Moreover, the “alpha4beta2 antagonism: % of antagonism of acetylcholine administered after drug” value on rat alpha4beta2 receptor [2] amounted to 10.

Values taken from patent US5977144A (priority 1997, dated 1999).
